{"source": "paper PMC8881610", "about": "(Nature Communications, 2022)", "assay_in_all_cases": "Whole-cell binding assay, competition with 125I-GCG", "parameters_in_all_cases": "V5 (C); 6×His (C); expressed in transfected cells; host or cells: CHO-K1", "key": {"GCGR [1]": {"target": "GCGR (Homo sapiens, UniProt P47871, K205A)", "sequence (P47871 26-477 K205A)": "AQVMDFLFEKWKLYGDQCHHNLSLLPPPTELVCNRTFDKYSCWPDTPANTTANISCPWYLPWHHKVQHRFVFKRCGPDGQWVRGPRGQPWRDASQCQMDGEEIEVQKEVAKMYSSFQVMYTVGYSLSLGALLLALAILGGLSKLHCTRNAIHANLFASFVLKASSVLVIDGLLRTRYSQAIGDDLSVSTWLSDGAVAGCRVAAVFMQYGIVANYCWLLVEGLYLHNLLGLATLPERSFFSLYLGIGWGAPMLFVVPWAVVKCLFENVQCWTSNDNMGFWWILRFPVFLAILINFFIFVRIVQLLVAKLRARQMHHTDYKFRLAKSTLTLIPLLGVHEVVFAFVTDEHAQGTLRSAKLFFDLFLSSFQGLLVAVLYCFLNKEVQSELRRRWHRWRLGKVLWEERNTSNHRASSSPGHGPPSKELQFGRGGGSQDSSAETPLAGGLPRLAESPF", "details": "GCGR K205A, CHO-K1", "in_short": "(§1)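 CHO-K1 cells transiently transfected with WT or mutant receptor constructs, washed in F-12 with 0.1% BSA or casein/33 mM HEPES and incubated 2 h at 37 °C. Bound radioactivity counted after Triton lysis; data normalized to WT and fitted to a three-parameter logistic equation.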"}, "GCGR [2]": {"target": "GCGR (Homo sapiens, UniProt P47871, R199A)", "sequence (P47871 26-477 R199A)": "as the sequence (P47871 26-477 K205A) above, with R174A, A180K counted along it", "details": "GCGR R199A, CHO-K1", "in_short": "as §1"}, "GCGR [3]": {"target": "GCGR (Homo sapiens, UniProt P47871, W87A)", "sequence (P47871 26-477 W87A)": "as the sequence (P47871 26-477 K205A) above, with W62A, A180K counted along it", "details": "GCGR W87A, CHO-K1", "in_short": "as §1"}, "GCGR [4]": {"target": "GCGR (Homo sapiens, UniProt P47871, W215A)", "sequence (P47871 26-477 W215A)": "as the sequence (P47871 26-477 K205A) above, with A180K, W190A counted along it", "details": "GCGR W215A, CHO-K1", "in_short": "as §1"}, "GCGR [5]": {"target": "GCGR (Homo sapiens, UniProt P47871, Y145A)", "sequence (P47871 26-477 Y145A)": "as the sequence (P47871 26-477 K205A) above, with Y120A, A180K counted along it", "details": "GCGR Y145A, CHO-K1", "in_short": "as §1"}, "GCGR [6]": {"target": "GCGR (Homo sapiens, UniProt P47871, D195A/Q142A/R199A)", "sequence (P47871 26-477 Q142A/D195A/R199A)": "as the sequence (P47871 26-477 K205A) above, with Q117A, D170A, R174A, A180K counted along it", "details": "GCGR Q142A/D195A/R199A, CHO-K1", "in_short": "as §1"}, "GCGR [7]": {"target": "GCGR (Homo sapiens, UniProt P47871, Y202A)", "sequence (P47871 26-477 Y202A)": "as the sequence (P47871 26-477 K205A) above, with Y177A, A180K counted along it", "details": "GCGR Y202A, CHO-K1", "in_short": "as §1"}, "GCGR [8]": {"target": "GCGR (Homo sapiens, UniProt P47871, Q293A)", "sequence (P47871 26-477 Q293A)": "as the sequence (P47871 26-477 K205A) above, with A180K, Q268A counted along it", "details": "GCGR Q293A, CHO-K1", "in_short": "as §1"}, "GCGR [9]": {"target": "GCGR (Homo sapiens, UniProt P47871, Q131A)", "sequence (P47871 26-477 Q131A)": "as the sequence (P47871 26-477 K205A) above, with Q106A, A180K counted along it", "details": "GCGR Q131A, CHO-K1", "in_short": "as §1"}, "GCGR [10]": {"target": "GCGR (Homo sapiens, UniProt P47871, D195A)", "sequence (P47871 26-477 D195A)": "as the sequence (P47871 26-477 K205A) above, with D170A, A180K counted along it", "details": "GCGR D195A; CHO-K1; read-out: binding pIC50 (converted)", "in_short": "as §1"}, "GCGR [11]": {"target": "GCGR (Homo sapiens, UniProt P47871, Y138A)", "sequence (P47871 26-477 Y138A)": "as the sequence (P47871 26-477 K205A) above, with Y113A, A180K counted along it", "details": "GCGR Y138A, CHO-K1", "in_short": "as §1"}, "[12]": {"details": "read-out: binding pIC50 (converted)"}}, "data": [{"smiles": "CCCCCCCCCCCCCCCC(=O)N[C@@H](CCC(=O)NCCCC[C@H](NC(=O)[C@H](CC(=O)O)NC(=O)[C@H](CO)NC(=O)[C@@H](NC(=O)[C@H](Cc1ccccc1)NC(=O)[C@@H](NC(=O)CNC(=O)[C@H](CCC(N)=O)NC(=O)C(C)(C)NC(=O)[C@@H](N)Cc1c[nH]cn1)[C@@H](C)O)[C@@H](C)O)C(=O)N[C@@H](CO)C(=O)N[C@@H](CCCCN)C(=O)N[C@@H](Cc1ccc(O)cc1)C(=O)N[C@@H](CC(C)C)C(=O)N[C@@H](CC(=O)O)C(=O)N[C@@H](CCC(=O)O)C(=O)N[C@@H](CCCNC(=N)N)C(=O)N[C@@H](C)C(=O)N[C@@H](C)C(=O)N[C@@H](CCC(N)=O)C(=O)N[C@@H](CC(=O)O)C(=O)N[C@@H](Cc1ccccc1)C(=O)N[C@H](C(=O)N[C@@H](CCC(N)=O)C(=O)N[C@@H](Cc1c[nH]c2ccccc12)C(=O)N[C@@H](CC(C)C)C(=O)N[C@@H](CC(C)C)C(=O)N[C@@H](CC(=O)O)C(=O)NCC(=O)NCC(=O)N1CCC[C@H]1C(=O)N[C@@H](CO)C(=O)N[C@@H](CO)C(=O)NCC(=O)N[C@@H](C)C(=O)N1CCC[C@H]1C(=O)N1CCC[C@H]1C(=O)N1CCC[C@H]1C(=O)N[C@@H](CO)C(N)=O)C(C)C)C(=O)O", "note": "[Peptide 20]", "values": [{"measurement": "binding Span", "setting": "GCGR [1]", "result": "130.88 ± 9.06", "unit": "% WT"}, {"measurement": "IC50", "setting": "GCGR [1]; [12]", "result": 0.182, "unit": "µM"}, {"measurement": "binding Span", "setting": "GCGR [2]", "result": "59.87 ± 5.43", "unit": "% WT"}, {"measurement": "IC50", "setting": "GCGR [2]; [12]", "result": 0.178, "unit": "µM"}, {"measurement": "binding Span", "setting": "GCGR [3]", "result": "4.68 ± 2.95", "unit": "% WT"}, {"measurement": "IC50", "setting": "GCGR [3]; [12]", "result": 0.00151, "unit": "µM"}, {"measurement": "binding Span", "setting": "GCGR [4]", "result": "7.72 ± 2.74", "unit": "% WT"}, {"measurement": "IC50", "setting": "GCGR [4]; [12]", "result": 0.145, "unit": "µM"}, {"measurement": "binding Span", "setting": "GCGR [5]", "result": "4.34 ± 3.92", "unit": "% WT"}, {"measurement": "IC50", "setting": "GCGR [5]; [12]", "result": 0.000457, "unit": "µM"}, {"measurement": "binding Span", "setting": "GCGR [6]", "result": "24.37 ± 1.80", "unit": "% WT"}, {"measurement": "IC50", "setting": "GCGR [6]; [12]", "result": 0.0302, "unit": "µM"}, {"measurement": "binding Span", "setting": "GCGR [7]", "result": "5.12 ± 1.71", "unit": "% WT"}, {"measurement": "IC50", "setting": "GCGR [7]; [12]", "result": 0.0186, "unit": "µM"}, {"measurement": "binding Span", "setting": "GCGR [8]", "result": "135.17 ± 6.41", "unit": "% WT"}, {"measurement": "IC50", "setting": "GCGR [8]; [12]", "result": 0.132, "unit": "µM"}, {"measurement": "binding Span", "setting": "GCGR [9]", "result": "32.87 ± 3.34", "unit": "% WT"}, {"measurement": "IC50", "setting": "GCGR [9]; [12]", "result": 0.0692, "unit": "µM"}, {"measurement": "IC50", "setting": "GCGR [10]", "result": 0.0257, "unit": "µM"}, {"measurement": "binding Span", "setting": "GCGR [11]", "result": "2.08 ± 2.48", "unit": "% WT"}, {"measurement": "IC50", "setting": "GCGR [11]; [12]", "result": 0.00115, "unit": "µM"}]}]}
